Earlier results on ten molecules are cited in patent US10413482B2, “Delamination resistant pharmaceutical glass containers containing active pharmaceutical ingredients” (Corning Incorporated, priority 2011, dated 2019).

Assay in data set [1]: not given
This is another data set of the same source.

The conditions of data set [2]: for duration of action: after injection.
Data set [3] deals with patients with moderate to severe ulcerative colitis. The conditions noted are these: in vivo.
In data set [4] the test system is patients whose asthma cannot be adequately controlled with inhalable glucocorticoids. To be noted: in vivo.
The conditions of data set [5]: once-daily.
Data set [6] has as its system patients with acute coronary syndrome (ACS). To be noted: in vivo.
The subject of data set [7] is adults with late-onset LAL Deficiency.

The term half-life denotes how long it takes for the measured level to halve. Consider `[Cl][223Ra][Cl]` [Radium-223, Radium-223 dichloride], for which the half-life is listed as 11.4 days.
Turning to relaxin, the shelf-life entry in data set [1] (approximately pH 5, 5° C., acceptable reduction of 10% in the HPLC main peak area) is “at least 2 years”.
As to “insulin regular: formulation of recombinant insulin structurally identical to the insulin produced by the human pancreas”, the duration of action entry in data set [2] is given as “approximately 8 hours”. In addition, the “onset of pharmacologic effect” value in data set [2] (after subcutaneous administration) is listed as “approximately one-half”.
On to “Vedolizumab: humanized monoclonal antibody targeting α4β7 integrin”, for which the “safety and clinical remission” value in data set [3] is “safe and effective for inducing and maintaining clinical remission”.
Turning to Insulin detemir, the duration of action result in data set [2] was “up to 24 hours”.
Turning to “lebrikizumab: humanized monoclonal antibody against interleukin-13 (IL-13)”, the symptoms of asthma result in data set [4] was “significantly decrease the symptoms of asthma”.
Consider lixisenatide, for which, in data set [5], the tolerability result is “well-tolerated”. Also, the glycemic control entry in data set [5] (one-step dose increase, single maintenance dose) is recorded as “significantly improved glycemic control”.
In the case of `COC(=O)[C@H](Cc1cccc(C(=N)N)c1)[C@@H](C)NC(=O)c1ccc(-c2cc[n+]([O-])cc2)cc1` (mixture of isomers) [Otamixaban, reference compound], the “degradation during sterilization and storage” value in data set [1] (formulations at pH between 3 and 5) is “decreased otamixaban degradation during sterilization and storage”. Besides, the major coronary complications entry in data set [6] is listed as “reduce major coronary complications”.
For the molecule insulin degludec, in data set [2], the duration of action result is “more than 24 hours”.

B1: SBC-102: recombinant form of the human LAL enzyme (protein, UniProt P38571 77-399, looked up)
Lysosomal acid …: GPKPVVFLQHGLLADSSNWVTNLANSSLGFILADAGFDVWMGNSRGNTWSRKHKTLSVSQDEFWAFSYDEMAKYDLPASINFILNKTGQEQVYYVGHSQGTTIGFIAFSQIPELAKRIKMFFALGPVASVAFCTSPMAKLGRLPDHLIKDLFGDKEFLPQSAFLKWLGTHVCTHVILKELCGNLCFLLCGFNERNLNMSRVDVYTTHSPAGTSVQNMLHWSQAVKFQKFQAFDWGSSAKNYFHYNQSYPPTYNVKDMLVPTAVWSGGHDWLADVYDVNILLTQITNLVFHESIPEWEHLDFIWGLDAPWRLYNKIINLMRKYQ
With B1, the LDL entry in data set [7] (same time period) is reported as “a reduction in LDL was also observed”. In addition, in data set [7] (versus original baseline, p<0.05), the “total cholesterol, HDL cholesterol, and triglycerides” value was “significantly improved”. In data set [7] (weekly then every other week infusions), the liver transaminase levels result is recorded as “sustained impact of SBC-102 on reducing liver transaminase levels”.
